Measured values taken from ChEMBL document CHEMBL1132905, “Synthesis of glycosylated polyethylenimine with reduced toxicity and high transfecting efficiency” (Bioorg Med Chem Lett, 2000).

Experiment: Lethal dose against HeLa cells, from a human cervix epitheloid carcinoma
Type: toxicity, cell-based
Conditions: read-out: LD50 (the source's name)

Compound: CCN(CCNC)CCNC[C@H](O)[C@@H](O)[C@H](O[C@@H]1O[C@H](CO)C(O)[C@H](O)[C@H]1O)[C@H](O)CO (stereo partly specified) [GLYCOSYLATED PEI]
- CC50: > 300 µM
